Paper PMC10709440, “High-throughput ligand profile characterization in novel cell lines expressing seven heterologous insect olfactory receptors for the detection of volatile plant biomarkers” (Scientific Reports, 2023)

Tests used:
Drosophila OR49b = target: T1, Drosophila OR49b (Drosophila melanogaster, UniProt Q9V6H2); assay: cell-based; conditions: for OR49b response (VUAA1-normalized) at 1 μM / OR49b response (VUAA1-normalized) at 10 μM / OR49b response (VUAA1-normalized) at 100 μM / Average response: OR49b cell line; for OR49b response (VUAA1-normalized) at 1 μM: VOC concentration 1 μM; for OR49b response (VUAA1-normalized) at 10 μM: VOC concentration 10 μM; for OR49b response (VUAA1-normalized) at 100 μM: VOC concentration 100 μM; for Average response: mean of biological replicates; for DF norm AVERAGE OR49b: threshold 0.05, below shown as 0
T1 construct: expressed in transfected cells
T1 sequence (Q9V6H2 1-375): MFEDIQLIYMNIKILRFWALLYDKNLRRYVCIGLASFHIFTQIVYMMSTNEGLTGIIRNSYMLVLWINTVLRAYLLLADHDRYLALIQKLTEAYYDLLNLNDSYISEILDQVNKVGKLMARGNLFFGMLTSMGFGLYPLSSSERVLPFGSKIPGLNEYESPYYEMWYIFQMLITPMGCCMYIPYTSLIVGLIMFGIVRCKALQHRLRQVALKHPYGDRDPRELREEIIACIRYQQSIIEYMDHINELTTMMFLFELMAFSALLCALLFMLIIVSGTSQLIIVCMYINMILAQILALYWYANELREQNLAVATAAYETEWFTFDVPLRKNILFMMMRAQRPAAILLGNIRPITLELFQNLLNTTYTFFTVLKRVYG
T1 sequence (Q9VNB5 1-486 partner): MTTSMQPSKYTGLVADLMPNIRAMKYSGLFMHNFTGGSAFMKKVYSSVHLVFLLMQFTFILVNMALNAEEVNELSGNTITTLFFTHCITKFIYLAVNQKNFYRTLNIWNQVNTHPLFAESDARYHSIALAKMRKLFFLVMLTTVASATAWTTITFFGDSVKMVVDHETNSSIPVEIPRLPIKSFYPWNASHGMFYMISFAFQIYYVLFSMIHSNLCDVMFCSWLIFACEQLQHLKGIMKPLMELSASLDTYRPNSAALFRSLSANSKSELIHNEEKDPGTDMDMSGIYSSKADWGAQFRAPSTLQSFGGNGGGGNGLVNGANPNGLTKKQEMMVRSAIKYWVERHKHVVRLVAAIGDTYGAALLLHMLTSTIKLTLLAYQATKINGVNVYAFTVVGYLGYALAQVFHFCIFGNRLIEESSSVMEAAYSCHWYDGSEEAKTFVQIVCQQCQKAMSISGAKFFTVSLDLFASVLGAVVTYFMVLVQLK
In short: (§1)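 HEK293 lines stably expressing each Drosophila OR with GCaMP6, doxycycline-induced (1 μg/mL) 48 or 72 h. Fluorescence recorded 5 s baseline then 30 s after VOC injection at pH 7.3; ΔF=(FMAX−F0)/F0, normalized to 50 µM VUAA1 response per line, triplicate wells averaged; concentration series 0.01–100 μM.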

Drosophila OR13a = target: T2, Drosophila OR13a (Drosophila melanogaster, UniProt Q9VXL0); assay: Calcium ion fluorescence (GCaMP6) assay, OR13a stable HEK293 cell line; assay type: cell-based; conditions: for activation at 1 µM: HEK293, read-out: OR13a Average response (VUAA1-normalized), 1 μM VOC; for activation at 1 µM / activation at 10 µM / activation at 100 µM: 50 μM VUAA1 = 1, responses not exceeding 0.05 considered 0; for activation at 10 µM: HEK293, read-out: OR13a Average response (VUAA1-normalized), 10 μM VOC; for activation at 100 µM: HEK293, read-out: OR13a Average response (VUAA1-normalized), 100 μM VOC; for OR13a response (VUAA1-normalized) at 1 μM / OR13a response (VUAA1-normalized) at 10 μM / OR13a response (VUAA1-normalized) at 100 μM: OR13a cell line; for OR13a response (VUAA1-normalized) at 1 μM: VOC concentration 1 μM; for OR13a response (VUAA1-normalized) at 10 μM: VOC concentration 10 μM; for OR13a response (VUAA1-normalized) at 100 μM: VOC concentration 100 μM; for DF norm AVERAGE OR13a: threshold 0.05, below shown as 0
T2 construct: expressed in transfected cells
T2 sequence (Q9VXL0 1-418): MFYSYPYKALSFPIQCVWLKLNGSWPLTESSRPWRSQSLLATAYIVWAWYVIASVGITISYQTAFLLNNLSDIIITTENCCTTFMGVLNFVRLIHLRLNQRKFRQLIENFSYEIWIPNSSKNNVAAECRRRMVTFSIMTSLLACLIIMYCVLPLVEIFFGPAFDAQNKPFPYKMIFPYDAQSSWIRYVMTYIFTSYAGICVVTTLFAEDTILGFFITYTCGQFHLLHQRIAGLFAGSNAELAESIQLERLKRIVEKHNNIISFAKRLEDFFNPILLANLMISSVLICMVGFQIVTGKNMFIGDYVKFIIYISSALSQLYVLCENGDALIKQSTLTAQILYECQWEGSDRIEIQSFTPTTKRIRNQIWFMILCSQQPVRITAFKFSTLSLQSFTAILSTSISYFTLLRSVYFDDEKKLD
T2 sequence (Q9VNB5 1-486 partner): T1 sequence (Q9VNB5 1-486 partner)
In short: as §1

[1] = ligand concentration 1 (unit not given)
[2] = ligand concentration 10 (unit not given)
[3] = ligand concentration 100 (unit not given)

SMILES	OR49b response (VUAA1-normalized) at 1 μM (Drosophila OR49b)	OR49b response (VUAA1-normalized) at 10 μM (Drosophila OR49b)	OR49b response (VUAA1-normalized) at 100 μM (Drosophila OR49b)	Average response (Drosophila OR49b; odorant cc. 1 µM)	Average response (Drosophila OR49b; odorant cc. 10 µM)	Average response (Drosophila OR49b; odorant cc. 100 µM)	DF norm AVERAGE OR49b (Drosophila OR49b; [1])	DF norm AVERAGE OR49b (Drosophila OR49b; [2])	DF norm AVERAGE OR49b (Drosophila OR49b; [3])	activation at 1 µM (Drosophila OR13a)	activation at 10 µM (Drosophila OR13a)	activation at 100 µM (Drosophila OR13a)	OR13a response (VUAA1-normalized) at 1 μM (Drosophila OR13a)	OR13a response (VUAA1-normalized) at 10 μM (Drosophila OR13a)	OR13a response (VUAA1-normalized) at 100 μM (Drosophila OR13a)	DF norm AVERAGE OR13a (Drosophila OR13a; [1])	DF norm AVERAGE OR13a (Drosophila OR13a; [2])	DF norm AVERAGE OR13a (Drosophila OR13a; [3])
Cc1ccc(C(C)C)cc1 [p-cymene]	0.00	0.00	0.00	0.00	0.00	0.00	0	0	0	0%	0%	0%	0.00	0.00	0.00	0	0	0
CCCOC(C)=O [propyl acetate]	0.00	0.00	0.00	0.00	0.00	0.014	0	0	0	0%	0%	0%	0.00	0.00	0.00	0	0	0
